This is an account of results in patent US10919885B2, “Compounds and uses thereof” (Yumanity Therapeutics, Inc., priority 2018, dated 2021).

Each structure is given as a SMILES string.

One assay deals with human SCD5 (Homo sapiens (Human), UniProt Q86SK9). The assay can be described thus: Yeast growth assay, strain expressing human SCD5 as the sole desaturase (reduced growth as surrogate for SCD inhibition). Type of assay: cell-based. Particulars: yeast with OLE1 deleted expressing human SCD5 from a plasmid; growth read as OD600 after 40 h at 30° C.; top drug concentration 33.3 μM. How it is done: Strains expressing SCD1 or SCD5 as the sole desaturase, the human SCD1 and SCD5 genes were used to evaluate inhibition of SCD1/SCD5 using reduced growth as a surrogate for SCD inhibition. These yeast strains express human SCD1 or SCD5 from a plasmid harbored in a strain in which the yeast OLE1 gene is deleted.
All compound profiling experiments were performed using the same basic protocol. Yeast were cultured using standard techniques in complete synthetic media lacking uracil and containing yeast nitrogen base supplemented with 2% (w/v) glucose (SD-Ura) Starter cultures were inoculated in 3 mL SD-Ura media containing 0.01% tween and 0.2 mM palmitoleic and oleic acid. Cultures were incubated overnight in a 30° C. shaker incubator (225 rpm). Saturated morning cultures were centrifuged, washed in SD-Ura media lacking TWEEN-20 and fatty acids, and then diluted 1:20 in fresh SD-Ura media also lacking TWEEN-20 and fatty acids.
Compound administration was performed in two separate steps. First, 15 μL of SD-Ura was dispensed into clear 384-well assay plates using a MULTIDROP™ Combi reagent dispenser. […] The cultures described above were centrifuged and washed with media lacking TWEEN-20 or oleic and palmitoleic acids.
After yeast delivery, assay plates were incubated under humidified conditions at 30° C. for 40 h. Yeast growth was monitored by reading the OD600 of each well using a microplate reader (Perkin Elmer EnVision™).

A further assay deals with human SCD1 (Homo sapiens (Human), UniProt O00767). The assay can be described thus: Yeast growth assay, strain expressing human SCD1 as the sole desaturase (reduced growth as surrogate for SCD inhibition). Type of assay: cell-based. The note with it: yeast with OLE1 deleted expressing human SCD1 from a plasmid; growth read as OD600 after 40 h at 30° C.; top drug concentration 33.3 μM. An outline of the steps: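 Yeast lacking OLE1 depend on plasmid-borne human SCD1 or SCD5 and are tested in SD-Ura medium without oleic/palmitoleic acid or Tween.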
Chain of human SCD1 (O00767 whole entry): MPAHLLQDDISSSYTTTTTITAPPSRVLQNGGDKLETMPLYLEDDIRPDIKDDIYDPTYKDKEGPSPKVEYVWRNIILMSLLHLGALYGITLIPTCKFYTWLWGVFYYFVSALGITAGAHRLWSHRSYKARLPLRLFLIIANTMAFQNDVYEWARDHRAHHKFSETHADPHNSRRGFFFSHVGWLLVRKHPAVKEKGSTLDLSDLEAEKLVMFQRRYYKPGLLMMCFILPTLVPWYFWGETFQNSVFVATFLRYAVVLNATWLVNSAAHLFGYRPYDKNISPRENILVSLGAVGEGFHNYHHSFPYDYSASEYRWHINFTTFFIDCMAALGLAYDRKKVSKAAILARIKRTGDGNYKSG

Chain of human SCD5 (Q86SK9 whole entry): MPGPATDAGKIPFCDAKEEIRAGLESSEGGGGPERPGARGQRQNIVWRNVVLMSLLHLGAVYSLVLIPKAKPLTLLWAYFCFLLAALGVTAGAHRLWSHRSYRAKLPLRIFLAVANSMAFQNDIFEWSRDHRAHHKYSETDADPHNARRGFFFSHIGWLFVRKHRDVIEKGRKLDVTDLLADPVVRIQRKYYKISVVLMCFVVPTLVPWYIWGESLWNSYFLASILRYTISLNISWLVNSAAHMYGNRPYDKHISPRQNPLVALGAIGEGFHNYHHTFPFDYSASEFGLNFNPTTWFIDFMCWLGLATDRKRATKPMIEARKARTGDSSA

In the case of `O=C(Nc1cnn(Cc2ccccc2)c1)c1cc(-c2cccc3cnn(C4COC4)c23)on1` [Compound 96], the IC50 at human SCD5 and against human SCD1 was greater than 45 µM in each case.
For the compound `O=C(Nc1cnn(Cc2ccccc2)c1)c1cc(-c2ccccc2F)no1` [Compound 130], the IC50 against human SCD5 and at human SCD1 was greater than 45 µM in each case.
For `O=C(c1cc(-c2ccc3c(c2)OCO3)on1)N1Cc2ccccc2C1` [Compound 328], the IC50 against human SCD5 and against human SCD1 was greater than 45 µM throughout.
With `O=C(c1cc(-c2ccccc2)on1)N1CC(CCl)(CNc2ccccc2)C1` [Compound 215], the IC50 at human SCD5 amounted to 1.36 µM; against human SCD1 it was 1.86 µM.
The corresponding values for `O=C(Nc1cnn(Cc2cccnc2C(F)(F)F)c1)c1cc(-c2ccccc2F)on1` [Compound 177] are greater than 45 µM and greater than 45 µM.
For `O=C(c1cc(-c2ccc(F)cn2)on1)N1CC(c2ccccc2)C1` [Compound 243, (5-(5-fluoropyridin-2-yl)isoxazol-3-yl)(3-phenylazetidin-1-yl)methanone], the IC50 on human SCD5 amounted to 1.5 µM; against human SCD1, 1.6 µM.
The corresponding values for `O=C(c1cc(-c2ccccc2)on1)N1CC2(CC(c3ccccc3)C2)C1` [Compound 227, (6-phenyl-2-azaspiro[3.3]heptan-2-yl)-(5-phenylisoxazol-3-yl)methanone] are 8.87 µM and greater than 45 µM.
The corresponding values for `Cn1cc(NC(=O)c2cc(-c3ccco3)on2)cn1` [Compound 10] are greater than 45 µM and greater than 45 µM.
The corresponding values for `N#Cc1ccccc1-c1cc(C(=O)Nc2cnn(Cc3cccc(F)c3)c2)no1` [Compound 103] are greater than 45 µM and greater than 45 µM.
On to `O=C(c1cc(-c2ccc3c(c2)OCO3)on1)N1CCCC1c1ncccn1` (stereo not drawn) [Compound 431], for which the IC50 on human SCD5 and against human SCD1 was greater than 45 µM throughout.
As to `O=C(c1cc(-c2ccccc2)on1)N1CC2(CNC2)C1` [Compound 345], the IC50 against human SCD5 and on human SCD1 was greater than 45 µM in each case.
Consider `Cn1cc2ccc(-c3cc(C(=O)N4CC(c5ccccc5)C4)no3)cc2n1` [Compound 235, (5-(2-methyl-2H-indazol-6-yl)isoxazol-3-yl)(3-phenylazetidin-1-yl)methanone], for which the results for the IC50 against human SCD5 and against human SCD1 were 5.16 µM and greater than 45 µM, respectively.
In turn, `COC1(c2cc(C(=O)Nc3cnn(Cc4cccc(F)c4)c3)no2)CCC1` [Compound 115, N-(1-(3-fluorobenzyl)-1H-pyrazol-4-yl)-5-(1-methoxycyclobutyl)isoxazole-3-carboxamide] registered an IC50 on human SCD1 of 0.34 µM.
Same read-out and setting: then `CO[C@H]1CCN(c2cc(C(=O)Nc3cnn(Cc4ccccc4)c3)no2)C1` [Compound 189, (S)—N-(1-benzyl-1H-pyrazol-4-yl)-5-(3-methoxypyrrolidin-1-yl)isoxazole-3-carboxamide], with 0.065 µM; and `N#Cc1ccc(C2CCCN2C(=O)c2cc(-c3ccc4c(c3)OCO4)on2)cc1` (stereo not drawn) [Compound 395], with greater than 45 µM.
In turn, `COc1ccc(-c2cc(C(=O)N3CCC[C@H]3c3ccccc3)no2)nc1` [Compound 416] returned an IC50 on human SCD1 of 23.1 µM.
Same read-out and setting: then `N#Cc1cccc(-c2cc(C(=O)N3CCC[C@H]3c3ccccc3)no2)c1` [Compound 403], with 31.1 µM.
Same read-out and setting: then `O=C(c1cc(-c2ccccc2)on1)N1CC=C(c2cc(F)ccc2Cl)CC1` [Compound 305], with 4.8 µM.
Still for that read-out and setting: then `Cn1c(=O)oc2ccc(-c3cc(C(=O)N4CCC[C@H]4c4ccccc4)no3)cc21` [Compound 444], with greater than 45 µM; and `COc1ccc(-c2cc(C(=O)N3CCCC3c3ccccc3F)no2)nc1` (stereo not drawn) [Compound 415], with 40.2 µM; and `O=C(c1cc(-c2ccc3c(c2)OCO3)on1)N1CC(c2ccccc2)C1` [Compound 217, [5-(1,3-benzodioxol-5-yl)isoxazol-3-yl]-(3-phenylazetidin-1-yl)methanone], with 1.57 µM.
At human SCD1, `O=C(c1cc(-c2ccc3c(c2)OCO3)on1)N1CCC[C@@H]1c1ccccc1` [Compound 358] came in with an IC50 greater than 45 µM.
`COc1ccc(C2CCCN2C(=O)c2cc(-c3ccc4c(c3)OCO4)on2)c(F)c1` (stereo not drawn) [Compound 452] gave an IC50 on human SCD1 greater than 45 µM.
Consider `O=C(Nc1cnn(Cc2cc(F)ccc2Cl)c1)c1cc(-c2ccco2)on1` [Compound 28, N-(1-(2-chloro-5-fluorobenzyl)-1H-pyrazol-4-yl)-5-(furan-2-yl)isoxazole-3-carboxamide], for which the IC50 against human SCD1 is greater than 45 µM.
On the same count and under the same terms, then `O=C(Nc1cnn(Cc2ccccc2)c1)c1cc(N2CC[C@H](O)C2)on1` [Compound 187], with 15 µM; and `O=C(c1cc(-c2ccc3c(c2)OCO3)on1)N1CCCC1c1cc(Br)no1` (stereo not drawn) [Compound 412], with greater than 45 µM; and `N#Cc1ccc(-c2cc(C(=O)N3CCC[C@H]3c3ccccc3)no2)nc1` [Compound 435], with greater than 45 µM.
Same read-out and setting: then `O=C(Nc1cnn(Cc2ccccc2F)c1)c1cc(-c2ccco2)on1` [Compound 19, N-[1-[(2-fluorophenyl)methyl]pyrazol-4-yl]-5-(2-furyl)isoxazole-3-carboxamide], with 0.36 µM; and `O=C(Nc1cnn(Cc2ccccc2)c1)c1cc(-c2ccccc2F)on1` [Compound 38, N-(1-benzylpyrazol-4-yl)-5-(2-fluorophenyl)isoxazole-3-carboxamide], with greater than 45 µM.
In turn, `O=C(Nc1cnn(Cc2ccccc2)c1)c1cc(-c2ncccc2F)on1` [Compound 122] yielded an IC50 on human SCD1 of 4.7 µM.
On the same count and under the same terms, then `O=C(Nc1cnn(Cc2ccccc2)c1)c1noc2c1CCCC2` [Compound 156, N-(1-benzyl-1H-pyrazol-4-yl)-4,5,6,7-tetrahydrobenzo[d]isoxazole-3-carboxamide], with 0.01 µM; and `O=C(c1cc(-c2ccc3c(c2)OCO3)on1)N1CCCC1c1ccccc1` (stereo not drawn) [Compound 354], with greater than 45 µM.
The same measure, in the same setting: then `O=C(Nc1cnn(Cc2ccccc2)c1)c1cc(-c2ccco2)no1` [Compound 11, N-(1-benzylpyrazol-4-yl)-3-(2-furyl)isoxazole-5-carboxamide], with 0.05 µM.
Same read-out and setting: then `C=C(C)c1cc(C(=O)Nc2cnn(Cc3cccc(F)c3)c2)no1` [Compound 58, N-(1-(3-fluorobenzyl)-1H-pyrazol-4-yl)-5-(prop-1-en-2-yl)isoxazole-3-carboxamide], with 0.02 µM; and `O=C(Nc1cnn(Cc2ccccc2)c1)c1cc(Cl)on1` [Compound 180], with greater than 45 µM; and `O=C(Nc1cnn(Cc2ccccc2)c1)c1cc(N2CC[C@@H](O)C2)on1` [Compound 186, (R)—N-(1-benzyl-1H-pyrazol-4-yl)-5-(3-hydroxypyrrolidin-1-yl)isoxazole-3-carboxamide], with 2 µM.
At human SCD1, `O=C(c1cc(-c2ccc3c(c2)OCO3)on1)N1CCOCC1c1ccccc1` (stereo not drawn) [Compound 397] showed an IC50 greater than 45 µM.
Same read-out and setting: then `O=C(c1cc(-c2ccccc2)on1)N1CCC[C@H]1c1ccccc1` [Compound 386], with 30.5 µM; and `CC(C)c1cc(C(=O)Nc2cnn(Cc3cnccc3C(F)(F)F)c2)no1` [Compound 161, 5-isopropyl-N-(1-((4-(trifluoromethyl)pyridin-3-yl)methyl)-1H-pyrazol-4-yl)isoxazole-3-carboxamide], with 25 µM; and `O=C(c1cc(-c2ccc3c(c2)OCO3)on1)N1CC2(CC(c3ccccc3)C2)C1` [Compound 228], with 37.1 µM.
Compound `CC(C)c1cc(C(=O)N2CCC(c3cccc(F)c3)C2)no1` (stereo not drawn) [Compound 350] registered an IC50 at human SCD1 greater than 45 µM.
The compound `O=C(c1cc(-c2ccc3c(c2)OCO3)on1)N1CCCC1c1ccc(F)cc1` (stereo not drawn) [Compound 368] yielded an IC50 against human SCD1 greater than 45 µM.
`O=C(Nc1cnn(Cc2cccc(F)c2)c1)c1cc(-c2cnco2)on1` [Compound 86, N-(1-(3-fluorobenzyl)-1H-pyrazol-4-yl)-5-(oxazol-5-yl)isoxazole-3-carboxamide] yielded an IC50 at human SCD1 of 0.188 µM.
At human SCD1, `O=C(c1cc(-c2ccc3c(c2)OCO3)on1)N1CCOc2ccccc21` [Compound 262] showed an IC50 greater than 45 µM.
Still for that read-out and setting: then `O=C(Nc1cnn(Cc2ccccc2)c1)c1cc(-c2ccncn2)on1` [Compound 148], with 4 µM; and `Cn1ccnc1C1CCCN1C(=O)c1cc(-c2ccc3c(c2)OCO3)on1` (stereo not drawn) [Compound 446], with greater than 45 µM; and `O=C(Nc1cnn(Cc2ccccc2C(F)(F)F)c1)c1cc(-c2ccco2)on1` [Compound 14, 5-(furan-2-yl)-N-(1-(2-(trifluoromethyl)benzyl)-1H-pyrazol-4-yl)isoxazole-3-carboxamide], with greater than 45 µM.
The same measure, in the same setting: then `O=C(Nc1cnn(Cc2cnccc2C(F)(F)F)c1)c1cc(N2CCCCC2)on1` [Compound 182, 5-(piperidin-1-yl)-N-(1-((4-(trifluoromethyl)pyridin-3-yl)methyl)-1H-pyrazol-4-yl)isoxazole-3-carboxamide], with greater than 45 µM.

Broadly, the IC50 is the midpoint of a concentration-inhibition curve. A higher IC50 goes with lower potency.
